Read-outs that look alike come from different tables or passages of the source.
Legend:
[1] = test system: HCT-116; assay: NCI in vitro DTP human cell line screen, HCT-116; assay type: cell-based; details: Colon Cancer, 1.00E−5 Molar
Protocol: (§1) Then, a cell toxicity assay of the cancer lines made by National Cancer Institute will be discussed as follows. The cell toxicity assay is performed by choosing ten compounds (existing certification numbers) from the 59 compounds disclosed in the present invention first.

[2] = test system: SK-OV-3; assay: NCI in vitro DTP human cell line screen, SK-OV-3; assay type: cell-based; details: Ovarian Cancer, 1.00E−5 Molar
Protocol: as §1

[3] = test system: NCI/ADR-RES; assay: NCI in vitro DTP human cell line screen, NCI/ADR-RES; assay type: cell-based; details: Ovarian Cancer, 1.00E−5 Molar
Protocol: as §1

[4] = test system: OVCAR-5; assay: NCI in vitro DTP human cell line screen, OVCAR-5; assay type: cell-based; details: Ovarian Cancer, 1.00E−5 Molar
Protocol: as §1

[5] = test system: A3 cell lines; assay: MTT assay, A3 cell lines (lung cancer stem cell); assay type: cell-based
Text: Please to FIG. 4B, various cell viabilities of the A3 cell lines can be obtained through the MTT assay and illustrated in FIG. 4B while the compounds No. 1˜30 are used to treat A3 cell lines, wherein A3 cell lines are lung cancer stem cell.

[6] = test system: UACC-257; assay: NCI in vitro DTP human cell line screen, UACC-257; assay type: cell-based; details: Melanoma, 1.00E−5 Molar
Protocol: as §1

[7] = test system: KM12; assay: NCI in vitro DTP human cell line screen, KM12; assay type: cell-based; details: Colon Cancer, 1.00E−5 Molar
Protocol: as §1

[8] = test system: 60 cancer lines; assay: NCI cell toxicity assay of 60 cancer lines, whole panel summary; assay type: cell-based, human; details: 1.00E−5 Molar; for Growth Percent, Mean: mean over all cell lines
Protocol: as §1

[9] = test system: OVCAR-4; assay: NCI in vitro DTP human cell line screen, OVCAR-4; assay type: cell-based; details: Ovarian Cancer, 1.00E−5 Molar
Protocol: as §1

[10] = test system: MDA-MB-231/ATCC; assay: NCI in vitro DTP human cell line screen, MDA-MB-231/ATCC; assay type: cell-based; details: Breast Cancer, 1.00E−5 Molar
Protocol: as §1

[11] = test system: NCI-H522; assay: NCI in vitro DTP human cell line screen, NCI-H522; assay type: cell-based; details: Non-Small Cell Lung Cancer, 1.00E−5 Molar
Protocol: as §1

[12] = test system: NCI-H23; assay: NCI in vitro DTP human cell line screen, NCI-H23; assay type: cell-based; details: Non-Small Cell Lung Cancer, 1.00E−5 Molar
Protocol: as §1

[13] = test system: MDA-MB-435; assay: NCI in vitro DTP human cell line screen, MDA-MB-435; assay type: cell-based; details: Melanoma, 1.00E−5 Molar
Protocol: as §1

[14] = test system: NCI-H460; assay: NCI in vitro DTP human cell line screen, NCI-H460; assay type: cell-based; details: Non-Small Cell Lung Cancer, 1.00E−5 Molar
Protocol: as §1

[15] = test system: SNB-19; assay: NCI in vitro DTP human cell line screen, SNB-19; assay type: cell-based; details: CNS Cancer, 1.00E−5 Molar
Protocol: as §1

[16] = test system: OVCAR-8; assay: NCI in vitro DTP human cell line screen, OVCAR-8; assay type: cell-based; details: Ovarian Cancer, 1.00E−5 Molar
Protocol: as §1

[17] = test system: SF-539; assay: NCI in vitro DTP human cell line screen, SF-539; assay type: cell-based; details: CNS Cancer, 1.00E−5 Molar
Protocol: as §1

[18] = test system: HCT-15; assay: NCI in vitro DTP human cell line screen, HCT-15; assay type: cell-based; details: Colon Cancer, 1.00E−5 Molar
Protocol: as §1

[19] = test system: UACC-62; assay: NCI in vitro DTP human cell line screen, UACC-62; assay type: cell-based; details: Melanoma, 1.00E−5 Molar
Protocol: as §1

[20] = test system: SR; assay: NCI in vitro DTP human cell line screen, SR; assay type: cell-based; details: Leukemia, 1.00E−5 Molar
Protocol: as §1

[21] = test system: M14; assay: NCI in vitro DTP human cell line screen, M14; assay type: cell-based; details: Melanoma, 1.00E−5 Molar
Protocol: as §1

[22] = test system: NCI-H226; assay: NCI in vitro DTP human cell line screen, NCI-H226; assay type: cell-based; details: Non-Small Cell Lung Cancer, 1.00E−5 Molar
Protocol: as §1

[23] = test system: SK-MEL-5; assay: NCI in vitro DTP human cell line screen, SK-MEL-5; assay type: cell-based; details: Melanoma, 1.00E−5 Molar
Protocol: as §1

[24] = test system: COLO 205; assay: NCI in vitro DTP human cell line screen, COLO 205; assay type: cell-based; details: Colon Cancer, 1.00E−5 Molar
Protocol: as §1

[25] = test system: SN12C; assay: NCI in vitro DTP human cell line screen, SN12C; assay type: cell-based; details: Renal Cancer, 1.00E−5 Molar
Protocol: as §1

[26] = test system: SK-MEL-2; assay: NCI in vitro DTP human cell line screen, SK-MEL-2; assay type: cell-based; details: Melanoma, 1.00E−5 Molar
Protocol: as §1

[27] = test system: HCC-2998; assay: NCI in vitro DTP human cell line screen, HCC-2998; assay type: cell-based; details: Colon Cancer, 1.00E−5 Molar
Protocol: as §1

[28] = test system: K562; assay: NCI in vitro DTP human cell line screen, K562; assay type: cell-based; details: Leukemia, 1.00E−5 Molar
Protocol: as §1

[29] = test system: MALME-3M; assay: NCI in vitro DTP human cell line screen, MALME-3M; assay type: cell-based; details: Melanoma, 1.00E−5 Molar
Protocol: as §1

[30] = test system: EKVX; assay: NCI in vitro DTP human cell line screen, EKVX; assay type: cell-based; details: Non-Small Cell Lung Cancer, 1.00E−5 Molar
Protocol: as §1

[31] = test system: LOX IMVI; assay: NCI in vitro DTP human cell line screen, LOX IMVI; assay type: cell-based; details: Melanoma, 1.00E−5 Molar
Protocol: as §1

[32] = test system: UO-31; assay: NCI in vitro DTP human cell line screen, UO-31; assay type: cell-based; details: Renal Cancer, 1.00E−5 Molar
Protocol: as §1

[33] = test system: HL-60(TB); assay: NCI in vitro DTP human cell line screen, HL-60(TB); assay type: cell-based; details: Leukemia, 1.00E−5 Molar
Protocol: as §1

[34] = MTT assay, HEL299 fibroblast; assay type: cell-based; details: human
Text: Please refer to FIG. 4C, various cell viabilities of the HEL299 cell lines can be obtained through the MTT assay while the compounds No. 1˜30 are used to treat HEL299 cell lines, wherein HEL299 cell lines are fibroblast.

[35] = test system: MOLT-4; assay: NCI in vitro DTP human cell line screen, MOLT-4; assay type: cell-based; details: Leukemia, 1.00E−5 Molar
Protocol: as §1

[36] = test system: HT29; assay: NCI in vitro DTP human cell line screen, HT29; assay type: cell-based; details: Colon Cancer, 1.00E−5 Molar
Protocol: as §1

[37] = test system: NCI-H322M; assay: NCI in vitro DTP human cell line screen, NCI-H322M; assay type: cell-based; details: Non-Small Cell Lung Cancer, 1.00E−5 Molar
Protocol: as §1

[38] = test system: CCRF-CEM; assay: NCI in vitro DTP human cell line screen, CCRF-CEM; assay type: cell-based; details: Leukemia, 1.00E−5 Molar
Protocol: as §1

[39] = test system: SF-295; assay: NCI in vitro DTP human cell line screen, SF-295; assay type: cell-based; details: CNS Cancer, 1.00E−5 Molar
Protocol: as §1

[40] = test system: 786-0; assay: NCI in vitro DTP human cell line screen, 786-0; assay type: cell-based; details: Renal Cancer, 1.00E−5 Molar
Protocol: as §1

[41] = test system: DU145; assay: NCI in vitro DTP human cell line screen, DU145; assay type: cell-based; details: Prostate Cancer, 1.00E−5 Molar
Protocol: as §1

[42] = test system: ACHN; assay: NCI in vitro DTP human cell line screen, ACHN; assay type: cell-based; details: Renal Cancer, 1.00E−5 Molar
Protocol: as §1

[43] = test system: OVCAR-3; assay: NCI in vitro DTP human cell line screen, OVCAR-3; assay type: cell-based; details: Ovarian Cancer, 1.00E−5 Molar
Protocol: as §1

[44] = test system: MCF7; assay: NCI in vitro DTP human cell line screen, MCF7; assay type: cell-based; details: Breast Cancer, 1.00E−5 Molar
Protocol: as §1

[45] = test system: HOP-62; assay: NCI in vitro DTP human cell line screen, HOP-62; assay type: cell-based; details: Non-Small Cell Lung Cancer, 1.00E−5 Molar
Protocol: as §1

[46] = test system: SF-268; assay: NCI in vitro DTP human cell line screen, SF-268; assay type: cell-based; details: CNS Cancer, 1.00E−5 Molar
Protocol: as §1

[47] = test system: IGROV1; assay: NCI in vitro DTP human cell line screen, IGROV1; assay type: cell-based; details: Ovarian Cancer, 1.00E−5 Molar
Protocol: as §1

[48] = test system: PC-3; assay: NCI in vitro DTP human cell line screen, PC-3; assay type: cell-based; details: Prostate Cancer, 1.00E−5 Molar
Protocol: as §1

[49] = test system: TK-10; assay: NCI in vitro DTP human cell line screen, TK-10; assay type: cell-based; details: Renal Cancer, 1.00E−5 Molar
Protocol: as §1

O=c1c2ccccc2sc2c(Cl)c(SCc3ccc(Cl)cc3)ccc12 [No. 26, 4-Chloro-3-(4-chlorobenzylthio)-9H-thioxanthen-9-one]
Growth Percent [1]: 96.31%
Growth Percent [2]: 97.10%
Growth Percent [3]: 100.89%
Growth Percent [4]: 102.23%
cell viabilities of A3 cell lines (MTT assay) [5]: 62.4%
Growth Percent [6]: 92.94%
Growth Percent [7]: 107.42%
Growth Percent, Mean [8]: 99.47%
Growth Percent [9]: 107.67%
Growth Percent [10]: 95.00%
Growth Percent [11]: 81.19%
Growth Percent [12]: 96.57%
Growth Percent [13]: 108.59%
Growth Percent [14]: 106.85%
Growth Percent [15]: 96.85%
Growth Percent [16]: 86.47%
Growth Percent [17]: 96.81%
Growth Percent [18]: 104.80%
Growth Percent [19]: 92.54%
Growth Percent [20]: 93.51%
Growth Percent [21]: 101.01%
Growth Percent [22]: 94.77%
Growth Percent [23]: 101.76%
Growth Percent [24]: 108.87%
Growth Percent [25]: 94.51%
Growth Percent [26]: 90.37%
Growth Percent [27]: 107.66%
Growth Percent [28]: 113.64%
Growth Percent [29]: 105.22%
Growth Percent [30]: 110.82%
Growth Percent [31]: 97.16%
Growth Percent [32]: 89.66%
Growth Percent [33]: 105.29%
viability [34]: 58.7 ± 5.55%
Growth Percent [35]: 96.00%
Growth Percent [36]: 103.09%
Growth Percent [37]: 101.60%
Growth Percent [38]: 92.28%
Growth Percent [39]: 112.42%
Growth Percent [40]: 106.48%
Growth Percent [41]: 108.56%
Growth Percent [42]: 91.82%
Growth Percent [43]: 130.11%
Growth Percent [44]: 94.48%
Growth Percent [45]: 89.02%
Growth Percent [46]: 101.57%
Growth Percent [47]: 104.47%
Growth Percent [48]: 93.28%
Growth Percent [49]: 100.13%

O=c1c2ccccc2sc2c(Cl)c(SCc3ccccc3)ccc12 [No. 23, 3-(Benzylthio)-4-chloro-9H-thioxanthen-9-one]
Growth Percent [1]: 41.74%
Growth Percent [2]: 94.39%
Growth Percent [3]: 90.62%
Growth Percent [4]: 94.34%
cell viabilities of A3 cell lines (MTT assay) ([5]; A3, lung cancer stem cell): 65.9%
inhibition effect on A3 cell line (in words) ([5]; summary of MTT cell viabilities): inhibition effect
Growth Percent [6]: 109.84%
Growth Percent [7]: 104.90%
Growth Percent, Mean [8]: 81.22%
cancer types with the better inhibition effect (in words) ([8]; summary of Table 3): better inhibition effect on Leukemia, non-small cell lung cancer, colorectal cancer, central nervous system cancer, ovarian cancer and kidney cancer
Growth Percent [9]: 15.10%
Growth Percent [10]: 71.98%
Growth Percent [11]: 95.48%
Growth Percent [12]: 97.59%
Growth Percent [13]: 91.01%
Growth Percent [14]: 29.14%
Growth Percent [15]: 83.57%
Growth Percent [16]: 82.11%
Growth Percent [17]: 102.89%
Growth Percent [18]: 82.20%
Growth Percent [19]: 90.92%
Growth Percent [20]: 36.57%
Growth Percent [21]: 102.67%
Growth Percent [22]: 90.97%
Growth Percent [23]: 99.73%
Growth Percent [24]: 63.36%
Growth Percent [25]: 79.25%
Growth Percent [26]: 116.81%
Growth Percent [27]: 101.78%
Growth Percent [28]: 86.95%
Growth Percent [29]: 93.38%
Growth Percent [30]: 93.46%
Growth Percent [31]: 62.94%
Growth Percent [32]: 66.76%
Growth Percent [33]: 115.59%
viability ([34]; HEL299, normal fibroblast, read-out: cell viabilities of HEL299 cell lines (MTT assay)): 82.5%
Growth Percent [35]: 98.34%
Growth Percent [36]: 60.70%
Growth Percent [37]: 70.18%
Growth Percent [38]: 59.07%
Growth Percent [39]: 63.22%
Growth Percent [40]: 78.53%
Growth Percent [41]: 107.70%
Growth Percent [42]: 26.15%
Growth Percent [43]: 76.97%
Growth Percent [44]: 89.62%
Growth Percent [45]: 94.64%
Growth Percent [46]: 100.29%
Growth Percent [47]: 56.63%
Growth Percent [48]: 83.92%
Growth Percent [49]: 95.49%
